According to patent US7250397B2, “Antiarrhythmic peptides” (Zealand Pharma A/S, priority 2000, dated 2007):
“Also recorded” adds a separate entry of the source.

Columns and labels:
[1] = tested on: ventricular reentry arrhythmias; experiment: Ventricular reentry arrhythmias in dogs after coronary artery occlusion; type: in vivo, dog; details: i.v. bolus and infusion after CAO; from the lowest dose
Experimental: Three dogs were studied in the anesthetized, open chest state to facilitate electrode placement for mapping. α-chloralose was given as a bolus (200 mg/kg) and then a constant infusion at 8 mg/kg/hr (dissolved in polyethylene glycol, MW=200). The femoral vein and artery was cannulated for administration of fluid and drugs and for measurement of ascending aortic pressure, respectively.
The sinus node was clamped and the atrial appendage was paced with a programmable stimulator with constant current outputs at two times diastolic threshold. Pacing rate was ≧200 b/min to control heart rates. […] Endocardial Effective Refractory Period (ERP) was measured by the standard extrastimulus technique. Late ventricular diastolic threshold was measured during each intervention; the pacing current was four times threshold.
Test sites were chosen along the shaft of 16 pole needles (J. Kassell, Fayetteville, N.C.); each pole completely surrounds the needle shaft to prevent directionality of needle orientation from recording of adjacent Purkinje strands. Six bipolar electrograms (1 mm spacing) were recorded sequentially down the shaft of the needle by amplifying up to 1000 times, filtering from 3-1300 Hz and recording via oscilloscope during atrial pacing. Four intramural electrograms are recorded on each multipolar needle. […]

ROS 17/2.8 cells = experiment: Lucifer Yellow dye transfer in ROS 17/2.8 cells; type: cell-based, rat; details: after 48 hours in 3-6% O2 (9 cells before)
Experimental: ROS 17/2.8 cells: Cells were cultured in 100 mm dishes at 37° C. with 5% CO2 and medium change every 2-3 days. ROS medium (all reagents obtained from Life Technologies) MEM (Cat.No. 31095) supplemented with 10% heat-inactivated calf serum (Cat.No. 16170), 1% NEAA (Cat.No. 11140), 1% Sodium Pyruvate (Cat.No. 11360), 1% L-Glutamine (Cat.No. 25030) and 0.1% Penicillin/Streptomycin (Cat.No. 15140). For video imaging experiments, cells were plated on coverslips at 2-3×10^5 cells/coverslip and cultured for 2-3 days before use.
The cells cultured on coverslips were placed in the microscope as described above. Microinjections were performed using the Eppendorf 5171 micromanipulator and the Eppendorf Transjector 5346 system. A micropipette was loaded with a 10 mM Lucifer Yellow (LY) solution (Sigma, Cat.No. L-0259). […] The excitation light for LY was 430 nm, and images were acquired as described above.
Similar experiments were performed with ROS cells. Basic coupling under physiological conditions in ROS cells was 12 cells (n=19). After 48 hours incubation in 3-6% O2, a reduction in dye transfer was seen to 9 cells (n=27).

[2] = tested on: alkaline phosphatase (ALP) activity of human osteoblasts; experiment: Alkaline phosphatase (ALP) assay in human osteoblasts; type: cell-based; details: four days; 10^−13-10^−6 M; normal culture conditions
Experimental: Human osteblast cells (hOB): Cells were isolated from human bone marrow obtained by puncture of the posterior iliac spine of healthy volunteers (aged 20-36): 10-15 ml marrow material was collected in 15 ml PBS+Ca,Mg (Life Technologies, Cat.No. 14040) with 100 U/ml Heparin (Sigma, Cat.No. H-3149). The mononuclear fraction of the marrow was isolated on a Lymphoprep gradient (Nycomed Pharma, Cat.No. 1001967), by centrifugation at 2200 rpm for 30 min. After harvesting, the mononuclear fraction was washed once with culture medium and centrifuged at 1800 rpm for 10 min. Subsequently cells were counted and plated in culture medium at 8×10^6 cells/100 mm dish. hOB medium (all reagents obtained from Life Technologies): MEM w/o Phenol Red w/Glutamax (Cat.No. 041-93013) supplemented with 10% heat inactivated fetal calf serum (Cat.No. 10106) and 0.1% Penicillin/Streptomycin (Cat.No. 15140). Medium was changed the following day and the cells were cultured at 37° C. in 5%CO2 with medium change every 7 days. After 3-4 weeks of culture the cells had reached 70% confluence. […]
• Day 1: Cells were plated in 96-well plates at a conc. of 8000 cells/well (hOB) or 3000 cells/well (ROS) in 200 μl normal culture medium. • Day 2: Medium was changed on the cells. • Day 4: (Day 3 for ROS): Cells were washed with 200 μl MEM, 0.1% BSA (Sigma, Cat.No. A-9418). […] Absorbance was measured using a plate reader at 405 nm. […]

Ac-D-Tyr-D-Pro-D-4Hyp-Gly-D-Ala-Gly-NH2 [Compound 2]
inducibility of reentry ventricular tachycardia (VT) [1]: no longer inducible; also recorded: completely blocked; also recorded: No VT was inducible
average dye transfer, number of cells (ROS 17/2.8 cells): 12 cells
ALP activity compared to untreated controls [2]: increased ALP activity at most of the concentrations tested; also recorded: stimulated ALP activity
